Experimental data taken from patent publication EP3461349A1, “NOVEL DITERPENE GLYCOSIDES AS SWEETENERS OR SWEETENER ENHANCER” (Analyticon Discovery GmbH, priority 2017, dated 2019).
Like-named read-outs stand apart in the source and are kept apart here.

Experiments:
panel of 4 panelists = assay: Organoleptic test against sucrose and baiyunoside (taste panel); assay type: in vivo; set-up: key to compared to sucrose*: 3: sweeter than the control solution; 2: sweetness comparable with the control solution; 1: less sweet than the control solution but still sweet; conditions: for comment: cooling effect / comment: sweetness relative to Baiyunoside / comment: bitterness / off-taste / comment: lingering / persistence of sweet taste: 0.4 mg/ml (400 ppm) in non-carbonated mineral water; for comment: bitterness / off-taste / comment: lingering / persistence of sweet taste: compounds compared with Baiyunoside; for compared to sucrose*: sweetness score, 0.4 mg/ml (400 ppm) in non-carbonated mineral water vs sucrose 20 mg/ml, 4 panelists
Text: Organoleptic test of the compounds of formula (I) against sucrose and baiyunoside

[1] = literature; printed as "often >100x sweeter than sucrose"; cited from earlier work
[2] = Solubility in non-carbonated mineral water at the test concentration; conditions: 0.4 mg/ml (400 ppm) in non-carbonated mineral water
Protocol: The isolated pure compounds were dissolved in non-carbonated mineral water ("Fonsana Quelle") in a concentration of 0.4 mg/ml (400 ppm).

[3] = quoted from Tanaka et al.; cited from earlier work

| Compound | comment: cooling effect (panel of 4 panelists) | comment: sweetness relative to Baiyunoside (panel of 4 panelists) | comment: bitterness / off-taste (panel of 4 panelists) | comment: lingering / persistence of sweet taste (panel of 4 panelists) | compared to sucrose* (panel of 4 panelists) | sweetness relative to sucrose [1] | solubility [2] | duration of sweetness [3] | sweetness relative to sucrose [3] | sweetness compared with the sucrose solution (in words) (panel of 4 panelists; Baiyunoside solution at nominal 0.4 mg/ml, not completely dissolved, vs sucrose 20 mg/ml) |
| --- | --- | --- | --- | --- | --- | --- | --- | --- | --- | --- |
| CC1=C(CCc2ccoc2)C2(C)CCC(OC3OC(COS(=O)(=O)O)C(O)C(O)C3OC3OCC(O)C(O)C3O)C(C)(C)C2CC1 (centres unmarked) [Compound A, Baiyunoside-6'-sulfate] | Shows a remarkable cooling effect. | Sweeter | less bitter | less lingering | 3 |  |  |  |  |  |
| CC1=C(CCc2ccoc2)C2(C)CCC(OC3OC(CO)C(O)C(OS(=O)(=O)O)C3OC3OCC(O)C(O)C3O)C(C)(C)C2CC1 (centres unmarked) [Compound B, Baiyunoside-3'-sulfate] | Shows a remarkable cooling effect. | Sweeter | less bitter | less lingering | 3 |  |  |  |  |  |
| CC1=C(CCc2ccoc2)C2(C)CCC(OC3OC(COS(=O)(=O)O)C(O)C(O)C3O)C(C)(C)C2CC1 (centres unmarked) [Compound C, Baiyunol-3-glucosyl-6'-sulfate] | Shows a remarkable cooling effect. | Sweeter | less bitter | less lingering | 3 |  |  |  |  |  |
| C[C@H](CC[C@@H](O[C@@H]1O[C@H](CO[C@@H]2O[C@H](CO)[C@@H](O)[C@H](O)[C@H]2O)[C@@H](O)[C@H](O)[C@H]1O[C@@H]1O[C@H](CO)[C@@H](O)[C@H](O)[C@H]1O)C(C)(C)O)[C@H]1CC[C@@]2(C)[C@@H]3CC=C4[C@@H](CC[C@H](O[C@@H]5O[C@H](CO)[C@@H](O[C@@H]6O[C@H](CO)[C@@H](O)[C@H](O)[C@H]6O)[C@H](O)[C@H]5O)C4(C)C)[C@]3(C)[C@H](O)C[C@]12C [iso-mogroside V] |  |  |  |  |  | > 100 x |  |  |  |  |
| C[C@H](CC[C@@H](O[C@@H]1O[C@H](CO[C@@H]2O[C@H](CO)[C@@H](O)[C@H](O)[C@H]2O)[C@@H](O)[C@H](O)[C@H]1O[C@@H]1O[C@H](CO)[C@@H](O)[C@H](O)[C@H]1O)C(C)(C)O)[C@H]1CC[C@@]2(C)[C@@H]3CC=C4[C@@H](CC[C@H](O[C@@H]5O[C@H](CO[C@@H]6O[C@H](CO)[C@@H](O)[C@H](O)[C@H]6O)[C@@H](O)[C@H](O)[C@H]5O)C4(C)C)[C@]3(C)[C@H](O)C[C@]12C [mogroside V] |  |  |  |  |  | > 100 x |  |  |  |  |
| Baiyunol-3-(2'-arabinopyranosyl)-glucoside [Compound D] | Shows a remarkable cooling effect. | Sweeter | as bitter as Baiyunoside | less lingering | 3 |  | not completely soluble but better soluble than Baiyunoisde |  |  |  |
| Baiyunoside [reference compound] |  |  | bitter and licorice off-taste | very long lingering and persistent sweet taste |  |  | not completely soluble | more than one h | about 500 times | comparable to the sweetness of the sucrose solution |
